Holding throughout (type): in vivo, rat (male)
A short description of data set [1]: Efficiency of Traversing Eye to Retina (EtE) of FITC labeled peptides given in eye drops. On the procedure:
In order to trace the drugs, peptides were labeled with fluorescein isothiocyanate (FITC) using a FITC Protein Labeling Kit from ChangRu Biotech Ltd. (Guangzhou, China) according to the manufacturer’s protocol. After the labeling reaction, gel filtration was used to remove the free FITC. In order to determine the amount of the residual free FITC, the peptides were submitted to ultrafiltration using Amicon Ultra – 0.5 mL (Millipore, USA) with a molecular sieve of 2000 Da. After centrifugation (1000×g, 10 min) the peptide was subjected to fluorescence measurements performed with the multi-wavelength scanner Victor 3 (GE, USA) at the excitation of 495 nm and the emission of 520 nm. Protein concentrations were determined using the K4000 Bradford Protein Quantification Kit (Innovative, Guangzhou, China). The labeling efficiency was calculated using the following formula: label efficiency (LE) = fluorescence value (FV)/peptide mass (mol) (PM), representing the fluorescence intensity (AU) per mol of peptide (mol).
Male rats with body weight from 160 to 180 g were purchased from the Medical and Experimental Animal Center (Guangdong, China). Rats were randomly assigned to one of the experimental groups (7 rats per group) and subjected to eye drops with FITC labeled peptides (100 nmol/kg) and PBS as control. Rats were sacrificed by anesthesia 2 h after the eye drop administration and the retina was separated, weighed, washed three times with PBS and divided into two parts. One part was prepared on the glass slide with glycerin and subjected to fluorescence microscopic observation of FITC with 495 nm excitation/520 nm emission. All images, focused on the left upper regions of the retina, were taken with 500 ms exposure time. The other part of the retina was subjected to grinding and ultrasonication in PBS at a concentration of 100 mg weight tissue per milliliter of PBS. The supernatant was collected by centrifugation and the fluorescence intensity in the supernatant (100 uL) was determined. The valid fluorescence intensity (FI) for each sample treated with FITC labeled peptide was corrected by subtracting the fluorescence value of the sample treated with PBS, which was used as a blank background. The Efficiency of Traversing Eye to Retina (EtE) was expressed as the percentages of the FITC labeled peptide mass in the retina to the total FITC labeled peptide mass. The EtE was calculated using the following formula: EtE = tFI/LE/PW × 100% (tFI presents the fluorescence intensity of retina (arbitration unit, AU); LE presents the label efficiency of each peptide which has been determined above; PW presents the peptide mass (mole)).
Fig. 1 The efficiency of FITC labeled PACAP/PACAP-TAT (a, b) and VIP/VIP-TAT (c, d) traversing to retina given in eye drops. The retina was separated 2 h after the eye drops and submitted to the fluorescence microscopic observation of FITC fluorescence signal (A, C) and the calculation of Efficiency of Traversing Eye to Retina (EtE) (b, d). The data are means ± SEM of four experiments

In data set [2] the test system is retina (BCCAO-induced retinopathy). Put plainly: Retinal layer thickness / morphology after bilateral carotid artery occlusion (BCCAO), eye drops. On the procedure:
(§1) Adult male rat litters were housed in the animal facility in individual cages in a 12 h light-dark cycle with food and water ad libitum. Animal housing, care and application of experimental procedures were in accordance with institutional guidelines under approved protocols (No: BA02/2000–26/2017, University of Pecs). Under isoflurane anesthesia, common carotid arteries were exposed on both sides through a midline incision and then ligated with a 3–0 filament. A group of animals (sham group) underwent all steps of the operating procedure except ligation of the carotid arteries. Immediately following the operation, the right eye of the animals was treated with derivatives of PACAP (PACAP-TAT /n = 17/ or VIP-TAT /n = 17/) eye drops (1 μg/drop). Dose and schedule of the eye drop treatments were based on our previous experiments (Werling et al. [2016]). In the experiment for histological analysis, the different derivatives were dissolved in benzalkonium solution for ophthalmic use (solutio ophthalmica cum benzalkonio (SOCB)). The left eye, serving as a control, was treated with vehicle containing neither PACAP-TAT nor VIP-TAT. Animals were treated for five consecutive days, twice a day with one drop of drug, under brief isoflurane anesthesia (max. 5 min).
(§2) Fourteen days after the operation, rats (n = 10 SHAM and n = 24 BCCAO) were killed with anesthetic and the eyes were processed for histology. The eyes were removed and the retinas were solved in phosphate buffered saline (PBS), fixed in 4% paraformaldehyde dissolved in 0.1 M phosphate buffer (PB) (Sigma, Budapest, Hungary) and embedded in Durcupan ACM resin (Sigma, Budapest, Hungary). Retinas were cut at 2 μm and stained with toluidine blue dye (Sigma, Hungary). Sections were mounted in DPX medium (Sigma, Hungary) and photographs were taken with a digital CCD camera using the Spot program. Central retinal areas within 1 mm from the optic nerve were used (n = 5 measurements from one tissue block). The following parameters were measured: (i) cross-section of the retina from the outer limiting membrane (OLM) to the inner limiting membrane (ILM), (ii) the width of individual retinal layers (outer nuclear layer [ONL], outer plexiform layer [OPL], inner nuclear layer [INL], inner plexiform layer [IPL]), (iii) the number of cells/100 μm section length in the GCL, and the (iv) number of cells/[…]. Results are presented as mean ± SEM. Statistical comparisons were made using the two-way ANOVA test followed by Tukey’s post hoc analysis.
Fig. 4 Quantification of retinal layers in SHAM+SOCB, in SHAM+PACAP-TAT, in BCCAO+SOCB, and in BCCAO+PACAP-TAT animals; the right eye was treated with PACAP-TAT eye drops, the left eye served as controls receiving only SOCB. Comparison of all retinal layers (a–e). […] Statistical significance (*p < 0.05 vs. SHAM+SOCB retinas, #p < 0.05 vs. BCCAO+SOCB retinas) was calculated by two-way ANOVA followed by Fischer’s post hoc test
Fig. 6 Quantification of retinal layers in SHAM+SOCB, in SHAM+VIP-TAT, in BCCAO+SOCB, and in BCCAO+VIP-TAT animals; the right eye was treated with VIP-TAT eye drops, the left eye served as control receiving only SOCB. Comparison of all retinal layers (a–e). […] Statistical significance (*p < 0.05 vs. SHAM+SOCB retinas, #p < 0.05 vs. BCCAO+SOCB retinas) was calculated by two-way ANOVA followed by Fischer’s post hoc test

Data set [3] shares this test system. Put plainly: Number of cells in retinal nuclear layers and GCL after BCCAO, eye drops. Particulars: eye drops 1 μg/drop, twice a day, five days, vs BCCAO-induced degenerated retinas, 14 days. On the procedure:
as §1, §2
Fig. 5 Quantification of the number of cells/100 μm GCL length (a), the number of cells/500 μm^2 ONL (b) and INL (c) areas in SHAM+SOCB, in SHAM+PACAP-TAT, in BCCAO+SOCB, and in BCCAO+PACAP-TAT animals. Statistical significance (*p < 0.05 vs. SHAM+SOCB retinas, #p < 0.05 vs. BCCAO+SOCB retinas) was calculated by two-way ANOVA followed by Bonferroni’s post hoc test
Fig. 7 Quantification of the number of cells/100 μm GCL length (a), the number of cells/500 μm^2 ONL (b) and INL (c) areas in SHAM+SOCB, in SHAM+VIP-TAT, in BCCAO+SOCB, and in BCCAO+VIP-TAT animals. Statistical significance (*p < 0.05 vs. SHAM+SOCB retinas, #p < 0.05 vs. BCCAO+SOCB retinas) was calculated by two-way ANOVA followed by Bonferroni’s post hoc test

“Also recorded” adds a separate entry of the source.

Turning to `CC[C@H](C)[C@H](NC(=O)CNC(=O)[C@H](CC(=O)O)NC(=O)[C@H](CO)NC(=O)[C@@H](N)Cc1c[nH]cn1)C(=O)N[C@@H](Cc1ccccc1)C(=O)N[C@H](C(=O)N[C@@H](CC(=O)O)C(=O)N[C@@H](CO)C(=O)N[C@@H](Cc1ccc(O)cc1)C(=O)N[C@@H](CO)C(=O)N[C@@H](CCCNC(=N)N)C(=O)N[C@@H](Cc1ccc(O)cc1)C(=O)N[C@@H](CCCNC(=N)N)C(=O)N[C@@H](CCCCN)C(=O)N[C@@H](CCC(N)=O)C(=O)N[C@@H](CCSC)C(=O)N[C@@H](C)C(=O)N[C@H](C(=O)N[C@@H](CCCCN)C(=O)N[C@@H](CCCCN)C(=O)N[C@@H](Cc1ccc(O)cc1)C(=O)N[C@@H](CC(C)C)C(=O)N[C@@H](C)C(=O)N[C@@H](C)C(=O)N[C@H](C(=O)N[C@@H](CC(C)C)C(=O)NCC(=O)N[C@@H](CCCCN)C(=O)N[C@@H](CCCNC(=N)N)C(=O)N[C@@H](Cc1ccc(O)cc1)C(=O)N[C@@H](CCCCN)C(=O)N[C@@H](CCC(N)=O)C(=O)N[C@@H](CCCNC(=N)N)C(=O)N[C@H](C(=O)N[C@@H](CCCCN)C(=O)N[C@@H](CC(N)=O)C(=O)N[C@@H](CCCCN)C(=O)NCC(=O)N[C@@H](CCCNC(=N)N)C(=O)N[C@@H](CCCCN)C(=O)N[C@@H](CCCCN)C(=O)N[C@@H](CCCNC(=N)N)C(=O)N[C@@H](CCCNC(=N)N)C(=O)N[C@@H](CCC(N)=O)C(=O)N[C@@H](CCCNC(=N)N)C(=O)N[C@@H](CCCNC(=N)N)C(=O)N[C@@H](CCCNC(=N)N)C(=O)N1CCC[C@H]1C(=O)N[C@@H](CCC(N)=O)C(=O)O)C(C)C)C(C)C)C(C)C)[C@@H](C)O` [PACAP-TAT], the “Efficiency of Traversing Eye to Retina (EtE)” value in data set [1] (FITC labeled peptides, eye drops 100 nmol/kg, retina separated 2 h after, fluorescence 495 nm excitation/520 nm emission, % of FITC labeled peptide mass in retina to total, means ± SEM of four experiments (7 rats per group)) is recorded as 3.66 ± 0.67%. For the same compound, the “EtE relative to the untagged peptide” value in data set [1] (PACAP-TAT/VIP-TAT vs PACAP/VIP, respectively, eye drops 100 nmol/kg, 2 h) is “about three-fold that of PACAP/VIP”. For the same compound, the “FITC fluorescence density per area unit in the retina” value in data set [1] (fluorescence microscopy of retina 2 h after eye drops of FITC labeled peptides (100 nmol/kg), vs PACAP/VIP) is “much higher than in retinas treated with eye drops of PACAP/VIP”. The “OPL preservation after BCCAO” value in data set [2] (BCCAO + eye drops, OPL almost disappeared in several BCCAO-induced degenerated retinas) is “preserved”. The “Retinal degeneration in light microphotographs after BCCAO” value in data set [2] (BCCAO + eye drops, toluidine blue sections, 14 days, severe degeneration in BCCAO+SOCB) is listed as “only mild degeneration”. For the same compound, the “Retinoprotective efficacy of eye drops, overall / compared with untagged peptide” value in data set [2] (BCCAO, topical eye drops in SOCB) is listed as “attenuate ischemic retinal degeneration via the PAC1 receptor; also recorded: did not prove to have significantly higher retinoprotective efficacy than untagged PACAP”. In data set [2] (BCCAO, eye drops 1 μg/drop, twice a day, five consecutive days, in SOCB, right eye, left eye SOCB control, 14 days, p < 0.05 vs. BCCAO+SOCB), the “Retinal layer thickness (OLM-ILM, ONL, OPL, INL, IPL) after BCCAO” value is given as “significant amelioration in all retinal layers; also recorded: improved the structure of all the retinal layers”. For the same compound, the “Change of retinal thickness in sham animals” value in data set [2] (eye drops alone in sham animals, 1 μg/drop, twice a day, five consecutive days, in SOCB, histology 14 days after operation) was “did not cause any changes in the retinal thickness”. Further, in data set [3], the “Number of cells in the GCL/100 μm after BCCAO” value is given as “significantly higher compared to the BCCAO-induced degenerated retinas”, the “Number of cells in the INL/500 μm2 after BCCAO” value is recorded as “significantly higher compared to the BCCAO-induced degenerated retinas” and the “Number of cells in the ONL/500 μm2 after BCCAO” value is recorded as “significantly higher compared to the BCCAO-induced degenerated retinas”.

Source of the values: article PMC6581923 (Journal of Molecular Neuroscience, 2018).
